Experimental data: ChEMBL document CHEMBL1130515, “4-Heterocyclyl tetrahydropyridines as selective ligands for the human dopamine D4 receptor” (Bioorg Med Chem Lett, 1997)

Legend:
[1] = molecular target: Dopamine receptors; D2 & D4 (Homo sapiens) (UniProt P14416+P21917); assay: Ratio of dopamine D2/D4 receptor binding; format: protein assay
[2] = molecular target: D(2) dopamine receptor (Homo sapiens, UniProt P14416); assay: Displacement of [3H]spiperone from human dopamine D2 receptor in CHO cells; format: cell-based
Chain of D(2) dopamine receptor (P14416 whole entry): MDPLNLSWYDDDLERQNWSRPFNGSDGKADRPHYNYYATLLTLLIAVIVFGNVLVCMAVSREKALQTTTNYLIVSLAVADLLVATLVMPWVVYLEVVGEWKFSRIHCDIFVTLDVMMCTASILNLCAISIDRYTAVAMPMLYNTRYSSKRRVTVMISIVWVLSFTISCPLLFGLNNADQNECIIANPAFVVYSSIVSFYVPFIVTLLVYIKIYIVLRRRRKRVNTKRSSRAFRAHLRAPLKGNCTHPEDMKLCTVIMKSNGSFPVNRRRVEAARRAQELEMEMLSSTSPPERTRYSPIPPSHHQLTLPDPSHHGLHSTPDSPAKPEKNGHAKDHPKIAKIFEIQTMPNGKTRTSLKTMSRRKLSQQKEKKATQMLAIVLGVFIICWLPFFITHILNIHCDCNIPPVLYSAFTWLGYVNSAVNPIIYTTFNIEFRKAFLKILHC

[3] = molecular target: T1, D(4) dopamine receptor (Homo sapiens, UniProt P21917); assay: Displacement of [3H]spiperone from human dopamine receptor subtype hD4 expressed in HEK293 cells; format: cell-based
T1 sequence (P21917 whole entry): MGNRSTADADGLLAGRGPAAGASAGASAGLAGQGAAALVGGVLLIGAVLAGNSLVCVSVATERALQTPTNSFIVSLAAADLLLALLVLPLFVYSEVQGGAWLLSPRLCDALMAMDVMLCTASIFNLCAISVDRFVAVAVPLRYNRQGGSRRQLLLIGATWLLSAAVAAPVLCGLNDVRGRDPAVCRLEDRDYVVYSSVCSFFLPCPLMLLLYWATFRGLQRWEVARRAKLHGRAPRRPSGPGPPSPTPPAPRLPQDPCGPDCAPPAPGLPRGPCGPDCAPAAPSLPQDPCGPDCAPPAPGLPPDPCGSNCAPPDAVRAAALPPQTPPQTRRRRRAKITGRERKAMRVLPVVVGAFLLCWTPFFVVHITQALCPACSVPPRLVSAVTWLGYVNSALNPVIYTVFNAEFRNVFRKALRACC

[4] = molecular target: D(3) dopamine receptor (Homo sapiens, UniProt P35462); assay: Displacement of [3H]spiperone from human dopamine receptor subtype hD3 expressed in CHO cells; format: cell-based
Chain of D(3) dopamine receptor (P35462 whole entry): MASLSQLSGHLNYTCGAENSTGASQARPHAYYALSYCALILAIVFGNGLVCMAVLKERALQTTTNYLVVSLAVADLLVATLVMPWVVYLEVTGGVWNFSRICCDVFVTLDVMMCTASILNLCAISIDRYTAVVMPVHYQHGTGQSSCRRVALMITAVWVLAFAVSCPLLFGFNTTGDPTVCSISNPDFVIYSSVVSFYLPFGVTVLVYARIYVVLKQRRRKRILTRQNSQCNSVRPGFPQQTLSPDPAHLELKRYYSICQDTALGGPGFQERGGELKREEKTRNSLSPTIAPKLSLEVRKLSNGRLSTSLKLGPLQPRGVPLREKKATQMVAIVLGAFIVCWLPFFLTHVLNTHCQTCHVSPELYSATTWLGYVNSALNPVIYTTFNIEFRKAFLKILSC

[5] = test system: Rhesus monkey; assay: Volume of distribution (Vss) was evaluated in rhesus monkey at an intravenous dose of 1 mg/kg and peroral dose of 1 mg/kg; format: ADME, organism-based, Macaca mulatta; details: in vivo
[6] = Half life was evaluated in rat at an intravenous dose of 3 mg/kg and peroral dose of 5 mg/kg; format: ADME, organism-based; details: in vivo
[7] = Half life was evaluated in rhesus monkey at an intravenous dose of 1 mg/kg and peroral dose of 1 mg/kg; format: ADME, organism-based, Macaca mulatta; details: in vivo
[8] = test system: Rattus norvegicus; assay: Volume of distribution (Vss) was evaluated in rat at an intravenous dose of 3 mg/kg and peroral dose of 5 mg/kg; format: ADME, organism-based; details: in vivo
[9] = Bioavailability was evaluated in rhesus monkey at an intravenous dose of 1 mg/kg and peroral dose of 1 mg/kg; format: ADME, organism-based, Macaca mulatta; details: in vivo, po, read-out: Bioavailabiility
[10] = test system: Rattus norvegicus; assay: Plasma clearance was evaluated in rat at an intravenous dose of 3 mg/kg and peroral dose of 5 mg/kg; format: ADME, organism-based; details: in vivo
[11] = Bioavailability was evaluated in rat at an intravenous dose of 3 mg/kg and peroral dose of 5 mg/kg; format: ADME, organism-based; details: in vivo, po, read-out: Bioavailabiility
[12] = Maximum concentration in plasma (Cmax) was evaluated in rat at an intravenous dose of 3 mg/kg and peroral dose of 5 mg/kg; format: ADME, organism-based; details: po
[13] = Maximum concentration in plasma (Cmax) was evaluated in rhesus monkey at an intravenous dose of 1 mg/kg and peroral dose of 1 mg/kg; format: ADME, organism-based, Macaca mulatta; details: po

Chain of Dopamine receptors; D2 & D4 (Homo sapiens) (P14416 whole entry, looked up, one chain of several): as the sequence (P14416 whole entry) above

| SMILES | Ratio [1] | Ki [2] [nM] | Ki [3] [nM] | Ki [4] [nM] | Vss [5] [kg⁻¹] | half-life [6] [h] | half-life [7] [h] | Vss [8] [kg⁻¹] | bioavailability [9] [%] | Plasma clearance [10] [Clp] | bioavailability [11] [%] | Cmax [12] [ng/mL] | Cmax [13] [ng/mL] |
| --- | --- | --- | --- | --- | --- | --- | --- | --- | --- | --- | --- | --- | --- |
| C1=C(c2nc3ccccc3o2)CCN(Cc2ccccc2)C1 | 3 | 240 | 97 | 4500 | – | – | – | – | – | – | – | – | – |
| Clc1ccc(CN2CC=C(c3nc4cc(Cl)ccc4o3)CC2)cc1 | > 200 | > 1700 | 8.4 | > 4500 | – | – | – | – | – | – | – | – | – |
| Clc1ccc(CN2CC=C(c3nc4ccccc4[nH]3)CC2)cc1 | 10 | 670 | 68 | 1600 | – | – | – | – | – | – | – | – | – |
| Clc1ccc2sc(C3=CCN(Cc4ccccc4)CC3)nc2c1 | > 36 | > 1600 | 44 | 1800 | – | – | – | – | – | – | – | – | – |
| C1=C(c2nc3ccccc3[nH]2)CCN(Cc2ccccc2)C1 | 15 | 1400 | 94 | 4400 | – | – | – | – | – | – | – | – | – |
| Clc1ccc(CN2CC=C(c3nc4cc(Cl)ccc4s3)CC2)cc1 | 97 | 2000 | 21 | 660 | – | – | – | – | – | – | – | – | – |
| Clc1ccc(CN2CC=C(c3nc4cc(Cl)ccc4[nH]3)CC2)cc1 | 33 | 330 | 10 | 900 | – | – | – | – | – | – | – | – | – |
| Clc1ccc(CN2CC=C(c3nc4ccccc4s3)CC2)cc1 | > 1000 | > 1600 | 1.3 | > 4400 | 2.5 | 3.1 | 4.7 | 3.81 | 9 | 39 | 17 | 97 | 23 |
| Clc1ccc2[nH]c(C3=CCN(Cc4ccccc4)CC3)nc2c1 | 23 | 590 | 26 | 2900 | – | – | – | – | – | – | – | – | – |
| C1=C(c2nc3ccccc3s2)CCN(Cc2ccccc2)C1 | 120 | 600 | 5 | 560 | – | – | – | – | – | – | – | – | – |
| Clc1cccc(CN2CC=C(c3nc4ccccc4s3)CC2)c1 | 42 | 340 | 8.1 | 630 | – | – | – | – | – | – | – | – | – |
| Clc1ccc2oc(C3=CCN(Cc4ccccc4)CC3)nc2c1 | > 100 | > 1800 | 17 | 1600 | – | – | – | – | – | – | – | – | – |
| Clc1ccccc1CN1CC=C(c2nc3ccccc3s2)CC1 | > 23 | > 2000 | 87 | 1400 | – | – | – | – | – | – | – | – | – |
